Source: US8222414B2, “Indole compounds as an inhibitor of cellular necrosis” (LG Life Sciences Ltd., priority 2007, dated 2012)

Columns and labels:
Format in all cases: cell-based
[1] = system: Linm5F cells; test: Protective effect when tBHP was treated on pancreatic cells (SRB method); conditions: Pancreatic beta cell, tBHP 400 uM, 5 h
Experimental: (§1) In order to determine the protective effect on pancreatic cells, Linm5F cells, a sort of the beta cells, were distributed into the 96-well plate in the amount of 2×10^4 cells/well, and incubated for 24 h. The Example compounds were serially diluted by 3-fold to the final concentration of 30, 10, 3, 1, 0.3, 0.1 uM, by which each well was treated for 1 h. Cells were treated with tBHP at the final concentration of 400 uM, and further incubated for 5 h. Protective effects were determined using SRB (Sulforhodamine B Protein) method in which total amount of cellular protein is stained. Briefly, cells were incubated for 5 h, 50 uL of 4% formaldehyde solution was added to each well to fix the cells, and stored for about 30 min at room temperature. After discarding the media, each well was washed with distilled water 2-3 times, and the plate was dried in an oven at 50°. 50 uL of SRB solution was added to each well, and placed for about 30 min at room temperature. After removing SRB solution, the plate was washed with 1% acetic acid solution 2-3 times. After drying the plate in an oven at 50°, 100 uL of 10 mM Tris was added to elute SRB which was staining the intracellular protein.

[2] = system: primary hepatocytes isolated from rats; test: Cell protective effects against doxorubicin in hepatocytes (WST-1 cell viability); conditions: Hepatocyte; primary rat hepatocytes pretreated with compound for 30 min, then doxorubicin; viability by WST-1 after 24-48 h
Outline: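 Rat primary hepatocytes from two-step collagenase perfusion were pretreated for 30 min with compound: 5-step 2- or 3-fold series from 30, 10 or 1 µM, 0.2% DMSO. Doxorubicin or another hepatotoxicant (e.g., CCl4, acetaminophen, H2O2) was then added. Viability after 24–48 h was read by WST-1 (A440), and EC50 was taken as half-maximal protection.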

[3] = system: H9C2 cells; test: Protective effect when tBHP was treated on cardiac cells (SRB method); conditions: Rattus norvegicus, tBHP 400 uM, 2 h, H9C2 cardiomyocytes
Experimental: as §1, with “After drying the plate in an oven at 50°, 100 uL of 10 mM Tris was added to elute SRB which was staining the intracellular protein.” left out
In order to assess the protective effect on cardiac cells, H9C2 cells were distributed in the amount of 1.5×10^4 cells/well, and incubated for 24 h. […] Protective effect of each compound was determined using the same SRB method as in Linm5F of above mentioned 2).

[4] = system: SK-N-MC cells; test: Protective effect when tBHP was treated on brain cells (LDH assay); conditions: Homo sapiens, tBHP 400 uM, 6 h
Experimental: In order to assess the protective effect on brain cells, 2×10^4 brain cells were distributed into the 96-well plate using DMEM media (Gibco, 10% FBS), and incubated for 24 h. The Example compounds were serially diluted by 3-fold to the final concentration of 30, 10, 3, 1, 0.3, 0.1 uM, by which each well was treated for 1 h. Cells were treated with tBHP at the final concentration of 400 uM, and incubated for 6 h. 50 uL of media was taken from each well to proceed with LDH assay (Promega). In LDH assay, 50 uL of media was mixed with 50 uL of assay solution. After the reaction for 30 min at room temperature, absorbance was measured at 490 nm using SpectraMax (Molecular Device).

[5] = system: primary hepatocytes isolated from rats; test: Hepatocyte protective effect against substances deriving hepatocyte toxicity (WST-1 cell viability); conditions: for EC50: Rattus norvegicus, Hepatocyte, viability after 24-48 h, WST-1; for viability: primary rat hepatocytes
Experimental: Various endogenous/exogenous attacks on the cells trigger the mechanisms of cell death which is broadly classified into two types, i.e. apoptosis or necrosis. Using these cell death mechanisms, in the present experimental example, primacy hepatocytes isolated from rats were treated with drugs which were clinically shown to result in serious side-effects of hepatocyte toxicity or various chemicals which derive cell death, and the compounds synthesized in the Examples were estimated for their hepatocyte protective effects, after 24-48 h. The substances used to derive hepatocyte death include CCl4, ActD, H2O2, doxorubicin, anti-Fas Ab/Actinomycin D, acetaminophen, EtOH, CdCl2, palmitate, stearate, cyclophosphamide, terfenadine, diclofenac, simvastatin, and adefovir. Primary hepatocytes were isolated using the method of Seglen P O (Experimental Cell Research 74 (1972) pp 450-454). Briefly, hepatocytes were isolated according to the two-step collagenase perfusion method, and dead cells were removed by low speed (500 rpm) centrifugation for 10 min using percoll gradient (Kreamer B L etc, In Vitro Cellular & Developmental Biology 22 (1986) pp 201-211). During this step, the viability of cells was maintained 90% or above. The cells were suspended in HepatoZYME media (Gibco BRL), and the number of cells was counted. 1.5×10^4 cells in 100 μl were placed into the collagen-coated 96-well plate (BD biocoat), and adhered on the bottom for 3-4 h.
In order to assess the hepatocyte protective effect, above adhered cells were pretreated with the Example compounds for 30 min. […] 30 min after the treatment by compounds, cells were treated by the substances deriving hepatocyte death or hepatotoxic drugs at the concentrations indicated in Table 1. After 24-48 h, the viability of cells was determined to estimate the hepatocyte protective effects. The viability of cells was determined using WST-1 (MK-400, […]) method by the absorbance at 440 nm. Hepatocyte protective effects of the Example compounds were represented by “EC50” which was calculated from measured values. “EC50” herein means the concentration of the compound at which 50% of maximum protective effect is observed in the experiment.

Row | Structure (SMILES) | EC50 [1] | EC50 [2] | EC50 [3] | further results
1 | O=C(O)C[C@H]1CSC(c2cc3cccc(NC4CCCC4)c3[nH]2)=N1 [Example 14, [(S)-2-(7-cyclopentylamino-1H-indol-2-yl)-4,5-dihydro-thiazol-4-yl]-acetic acid] | 150 nM | 190 nM | – | –
2 | O=C(O)C[C@@H]1CSC(c2cc3cc(Oc4ccccc4)cc(NC4CCCC4)c3[nH]2)=N1 [Example 85, [(R)-2-(5-phenoxy-7-cyclopentylamino-1H-indol-2-yl)-4,5-dihydro-thiazol-4-yl]-acetic acid] | – | 400 nM | 700 nM | –
3 | O=C(O)C[C@@H]1CSC(c2cc3cc(Cl)cc(NC4CCCC4)c3[nH]2)=N1 [Example 4, [(R)-2-(5-chloro-7-cyclopentylamino-1H-indol-2-yl)-4,5-dihydro-thiazol-4-yl]-acetic acid] | – | 300 nM | – | EC50 [4]: ≤ 100 nM; EC50 ([5]; simvastatin 16 μM): < 10000 nM; EC50 ([5]; terfenadine 10 μM): 400 nM; viability ([5]; adefovir 100 μM, compound at 3-30 uM): 50%; viability ([5]; diclofenac 350 μM, compound at 3-100 uM): 40%
4 | Cc1cc(NCC2CCOCC2)c2[nH]c(C3=N[C@@H](CC(=O)O)CS3)cc2c1 [Example 22, [(S)-2-(5-methyl-7-(tetrahydropyran-4-yl)methylamino-1H-indol-2-yl)-4,5-dihydro-thiazol-4-yl]-acetic acid] | 200 nM | 250 nM | 170 nM | –
5 | Cc1cc(NCC2CCOCC2)c2[nH]c(C3=N[C@H](CC(=O)O)CS3)cc2c1 [Example 8, [(R)-2-(5-methyl-7-(tetrahydropyran-4-yl)methylamino-1H-indol-2-yl)-4,5-dihydro-thiazol-4-yl]-acetic acid] | – | 410 nM | – | –
6 | O=C(O)C[C@H]1COC(c2cc3cc(Cl)cc(NCC4CCOCC4)c3[nH]2)=N1 [Example 122, [(S)-2-(5-chloro-7-(tetrahydropyran-4-yl)methylamino-1H-indol-2-yl)-4,5-dihydro-oxazol-4-yl]-acetic acid] | – | 960 nM | – | –
